Measured values reported in patent US6399634B1, “Benzothiophene compounds, compositions, and methods” (Eli Lilly and Company, priority 1994, dated 2002).
Values joined by “and” are separate entries in the source; they are usually repeats but may differ in a detail not shown here. Identical values can stand only once. Counter-ions that a name gives are not always drawn.

Assays:
[1] = system: ovariectomized (OVX) rats; assay: Uterine wet weight in ovariectomized rat post-menopausal model, 4 days of dosing; format: in vivo, Sprague Dawley rats; settings: oral; for Uterine Weight (% increase vs. OVX): daily for 4 days
Protocol: In the examples illustrating the methods, a post-menopausal model was used in which effects of different treatments upon circulating lipids were determined.
(§1) Seventy-five day old female Sprague Dawley rats (weight range of 200 to 225 g) were obtained from Charles River Laboratories (Portage, Mich.). The animals were either bilaterally ovariectomized (OVX) or exposed to a Sham surgical procedure at Charles River Laboratories, and then shipped after one week. Upon arrival, they were housed in metal hanging cages in groups of 3 or 4 per cage and had ad libitum access to food (calcium content approximately 0.5%) and water for one week. Room temperature was maintained at 22.2°±1.7° C. with a minimum relative humidity of 40%. The photoperiod in the room was 12 hours light and 12 hours dark.
(§2) Dosing Regimen Tissue Collection. After a one week acclimation period (therefore, two weeks post-OVX) daily dosing with test compound was initiated. 17α-ethynyl estradiol or the test compound were given orally, unless otherwise stated, as a suspension in 1% carboxymethylcellulose or dissolved in 20% cyclodextrin. Animals were dosed daily for 4 days. Following the dosing regimen, animals were weighed and anesthetized with a ketamine: Xylazine (2:1, V:V) mixture and a blood sample was collected by cardiac puncture. The animals were then sacrificed by asphyxiation with CO2, the uterus was removed through a midline incision, and a wet uterine weight was determined.

[2] = system: Uterine Eosinophil Peroxidase (EPO); assay: Uterine Eosinophil Peroxidase (EPO) Assay on uteri of dosed OVX rats; format: in vivo, Sprague Dawley rats; parameters: unit not given here
Source text: as §1, §2
Uterine Eosinophil Peroxidase (EPO) Assay. Uteri were kept at 4° C. until time of enzymatic analysis. The uteri were then homogenized in 50 volumes of 50 mM Tris buffer (pH−8.0) containing 0.005% Triton X-100. Upon addition of 0.01% hydrogen peroxide and 10 mM o-phenylenediamine (final concentrations) in Tris buffer, increase in absorbance was monitored for one minute at 450 nm. The presence of eosonophils in the uterus is an indication of estrogenic activity of a compound. The maximal velocity of a 15 second interval was determined over the initial, linear portion of the reaction curve.

[3] = system: ovariectomized (OVX) rats; assay: Serum cholesterol analysis in ovariectomized rats, 4 days of dosing; format: in vivo, Sprague Dawley rats; settings: oral; for Serum Cholesterol (% decrease vs. OVX): daily for 4 days
Source text: as §1, §2
Cholesterol Analysis. Blood samples were allowed to clot at room temperature for 2 hours, and serum was obtained following centrifugation for 10 minutes at 3000 rpm. Serum cholesterol was determined using a Boehringer Mannheim Diagnostics high performance cholesterol assay. Briefly the cholesterol was oxidized to cholest-4-en-3-one and hydrogen peroxide. The hydrogen peroxide was then reacted with phenol and 4-aminophenazone in the presence of peroxidase to produce a p-quinone imine dye, which was read spectrophotemetrically at 500 nm. Cholesterol concentration was then calculated against a standard curve. The entire assay was automated using a Biomek Automated Workstation.

[4] = system: ovariectomized (OVX) rats; assay: Osteoporosis Test Procedure: femur bone density in OVX rats after 35 days of dosing; format: in vivo, Sprague Dawley rats; settings: for Bone Density: mean ± SEM
Source text: Seventy-five day old female Sprague Dawley rats (weight range of 200 to 225 g) were obtained from Charles River Laboratories (Portage, Mich.). The animals were either bilaterally ovariectomized (OVX) or exposed to a Sham surgical procedure at Charles River Laboratories, and then shipped after one week. Upon arrival, they were housed in metal hanging cages in groups of 3 or 4 per cage and had ad libitum access to food (calcium content approximately 0.5%) and water for one week. Room temperature was maintained at 22.2°±1.7° C. with a minimum relative humidity of 40%. The photoperiod in the room was 12 hours light and 12 hours dark. Following the General Preparation Procedure, infra, the rats were treated daily for 35 days (6 rats per treatment group) and sacrificed by decapitation on the 36th day. The 35 day time period was sufficient to allow maximal reduction in bone density, measured as described herein. At the time of sacrifice, the uteri were removed, dissected free of extraneous tissue, and the fluid contents were expelled before determination of wet weight in order to confirm estrogen deficiency associated with complete ovariectomy. […] The uteri were then placed in 10% neutral buffered formalin to allow for subsequent histological analysis. The right femurs were excised and scanned at the distal metaphysis 1 mm from the patellar groove with single photon absorptiometry. Results of the densitometer measurements represent a calculation of bone density as a function of the bone mineral content and bone width. In accordance with the above procedures, compounds of the present invention and ethynyl estradiol (EE2) in 20% hydroxypropyl β-cyclodextrin were orally administered to test animals. Data presented in Tables 5 and 6 below are the results of these treatments compared to intact and ovariectomized test animals. Results are reported as the mean±the standard error of the mean.

[5] = system: MCF-7 breast adenocarcinoma cells; assay: MCF-7 Proliferation Assay (tritiated thymidine); format: cell-based; settings: Homo sapiens, MCF7; MCF-7 cells, 48 hours with drug, tritiated thymidine pulse 4 hours
Protocol: MCF-7 breast adenocarcinoma cells (ATCC HTB 22) were maintained in MEM (minimal essential medium, phenol red-free, Sigma, St. Louis, Mo.) supplimented with 10% fetal bovine serum (FBS) (V/V), L-glutamine (2 mM), sodium pyruvate (1 mM), HEPES {(N-[2-hydroxyethyl]piperazine-N′-[2-ethanesulfonic acid]10 mM}, non-essential amino acids and bovine insulin (1 ug/mL) (maintenance medium). Ten days prior to assay, MCF-7 cells were switched to maintenance medium supplemented with 10% dextrancoated charcoal stripped fetal bovine serum (DCC-FBS) assay medium) in place of 10% FBS to deplete internal stores of steroids. MCF-7 cells were removed from maintenance flasks using cell dissociation medium (Ca++/Mg++ free HBSS (phenol red-free) supplemented with 10 mM HEPES and 2 mM EDTA). Cells were washed twice with assay medium and adjusted to 80,000 cells/mL. Approximately 100 μL (8,000 cells) were added to flat-bottom microculture wells (Costar 3596) and incubated at 37° C. in a 5% CO2 humidified incubator for 48 hours to allow for cell adherence and equilibration after transfer. Serial dilutions of drugs or DMSO as a diluent control were prepared in assay medium and 50 μL transferred to triplicate microcultures followed by 50 μL assay medium for a final volume of 200 μL. After an additional 48 hours at 37° C. in a 5% CO2 humidified incubator, microcultures were pulsed with tritiated thymidine (1 uCi/well) for 4 hours. Cultures were terminated by freezing at −70° C. for 24 hours followed by thawing and harvesting of microcultures using a Skatron Semiautomatic Cell Harvester. Samples were counted by liquid scintillation using a Wallac BetaPlace β counter. Results in Table 7 below show the IC50 for certain compounds of the present invention.

[6] = female, Sprague Dawley, rat, in vivo, po, 0.1 mg/kg, 4 days
[7] = female, Sprague Dawley, rat, in vivo, po, 1 mg/kg, 4 days
[8] = female, Sprague Dawley, rat, in vivo, po, 10 mg/kg, 4 days

| SMILES | Uterine Weight (% increase vs. OVX) ([1]; dose 0.1 mg/kg) | Uterine Weight (% increase vs. OVX) ([1]; dose 1.0 mg/kg) [%] | Uterine Weight (% increase vs. OVX) ([1]; dose 10.0 mg/kg) [%] | Uterine EPO (V. max) [2, 6] | Uterine EPO (V. max) [2, 7] | Uterine EPO (V. max) [2, 8] | IC50 [5] [nM] | Uterine EPO (V. max) ([2]; OVX rats, oral, daily for 4 days, dose 0.1 mg/kg) | Serum Cholesterol (% decrease vs. OVX) ([3]; dose 0.1 mg/kg) | Serum Cholesterol (% decrease vs. OVX) ([3]; dose 1.0 mg/kg) [%] | Serum Cholesterol (% decrease vs. OVX) ([3]; dose 10.0 mg/kg) [%] | Bone Density ([4]; Table 5, oral, 0.01 mg/kg, OVX control 26.18, intact control 70.22, * P <= 0.05) [mg/cm/cm] | Bone Density ([4]; Table 5, oral, 0.1 mg/kg, OVX control 26.18, intact control 70.22, * P <= 0.05) [mg/cm/cm] | Bone Density ([4]; Table 5, oral, 1.0 mg/kg, OVX control 26.18, intact control 70.22, * P <= 0.05) [mg/cm/cm] | Effect on uterine weight compared to ovariectomized test animals (in words) ([1]; EE2 at 0.1 mg/Kg/day) | Effect on serum cholesterol compared to ovariectomized control animals (in words) ([3]; EE2 at 0.1 mg/Kg/day) | Bone Density ([4]; Table 5, oral, 100 μg/kg, OVX control 26.18, intact control 70.22, * P <= 0.05) [mg/cm/cm] | Bone Density ([4]; Table 6, oral, 100 μg/kg, OVX control 32.46, intact control 81.27, * P <= 0.05) [mg/cm/cm] | Prevention of femur bone loss caused by ovariectomy (in words) ([4]; oral) |
| --- | --- | --- | --- | --- | --- | --- | --- | --- | --- | --- | --- | --- | --- | --- | --- | --- | --- | --- | --- |
| COc1ccc(-c2sc3cc(OC)ccc3c2Cc2ccc(OCCN3CCCCC3)cc2)cc1 [(p)-Ex16, [6-Methoxy-2-(4-Methoxyphenyl)Benzo[B]Thien-3-Yl][4-[2-(1-Piperidinyl)Ethoxy]Phenyl]Methane Hydrochloride] | −13.5% | −13.7 | −24.6 | 5.8 | 5.4 | 6.2 | 50 |  | 26.8% | 59.4 | 72.3 | 26.78 ± 4.98 | 43.30 ± 7.86 | 33.62 ± 5.87 |  |  |  |  |  |
| CCCCS(=O)(=O)Oc1ccc(-c2sc3cc(OS(=O)(=O)CCCC)ccc3c2Cc2ccc(OCCN3CCCCC3)cc2)cc1 [(r)-Ex18, [6-{n-Butylsulfonoyloxy}-2-(4-{n-Butylsulfonoyloxy}Phenyl)Benzo[B]Thien-3-Yl][4-[2-(1-Piperidinyl)Ethoxy]Phenyl]Methane Hydrochloride] | −16.6% | −18.4 | −19.5 | 1.8 | 3.5 | 2.8 | 1000 |  | 65.4% | 67.0 | 67.9 |  |  |  |  |  |  |  |  |
| O=C(Oc1ccc(-c2sc3cc(OC(=O)c4ccccc4)ccc3c2Cc2ccc(OCCN3CCCCC3)cc2)cc1)c1ccccc1 [(s)-Ex21, [6-Benzoyloxy-2-(4-Benzoyloxyphenyl)Benzo[B]Thien-3-Yl][4-[2-{1-Piperidinyl}Ethoxy]Phenyl]Methane] | −19.6% | −28.7 | −26.6 | 1.8 | 2.6 | 2.3 | 0.01 |  | 66.2% | 63.4 | 64.4 |  |  |  |  |  |  |  |  |
| C#C[C@]1(O)CC[C@H]2[C@@H]3CCc4cc(O)ccc4[C@H]3CC[C@@]21C [EE2, 17α-ethynyl estradiol, reference compound] | 111.5% and 178.3% |  |  |  |  |  |  | 246.0 and 173.3 | 89.5% and 91.8% |  |  |  |  |  | substantially greater than the uterine weight of ovariectomized test animals | decrease in serum cholesterol | 47.94 ± 3.71 | 47.31 ± 6.42 | prevented this loss |
| C[C@]12CC[C@@H]3c4ccc(O)cc4CC[C@H]3[C@@H]1CCC2=O [Estrone, reference compound] |  |  |  |  |  |  | 1 |  |  |  |  |  |  |  |  |  |  |  |  |

Second part, led by results:

| Uterine Weight (% increase vs. OVX) ([1]; dose 0.1 mg/kg) | Uterine Weight (% increase vs. OVX) ([1]; dose 1.0 mg/kg) [%] | Uterine Weight (% increase vs. OVX) ([1]; dose 10.0 mg/kg) [%] | Uterine EPO (V. max) [2, 6] | Uterine EPO (V. max) [2, 7] | Uterine EPO (V. max) [2, 8] | IC50 [5] [nM] | Uterine EPO (V. max) ([2]; OVX rats, oral, daily for 4 days, dose 0.1 mg/kg) | SMILES | Serum Cholesterol (% decrease vs. OVX) ([3]; dose 0.1 mg/kg) | Serum Cholesterol (% decrease vs. OVX) ([3]; dose 1.0 mg/kg) [%] | Serum Cholesterol (% decrease vs. OVX) ([3]; dose 10.0 mg/kg) [%] | Bone Density ([4]; Table 5, oral, 0.01 mg/kg, OVX control 26.18, intact control 70.22, * P <= 0.05) [mg/cm/cm] | Bone Density ([4]; Table 5, oral, 0.1 mg/kg, OVX control 26.18, intact control 70.22, * P <= 0.05) [mg/cm/cm] | Bone Density ([4]; Table 5, oral, 1.0 mg/kg, OVX control 26.18, intact control 70.22, * P <= 0.05) [mg/cm/cm] | Effect on uterine weight compared to ovariectomized test animals (in words) ([1]; EE2 at 0.1 mg/Kg/day) | Effect on serum cholesterol compared to ovariectomized control animals (in words) ([3]; EE2 at 0.1 mg/Kg/day) | Bone Density ([4]; Table 5, oral, 100 μg/kg, OVX control 26.18, intact control 70.22, * P <= 0.05) [mg/cm/cm] | Bone Density ([4]; Table 6, oral, 100 μg/kg, OVX control 32.46, intact control 81.27, * P <= 0.05) [mg/cm/cm] | Prevention of femur bone loss caused by ovariectomy (in words) ([4]; oral) |
| --- | --- | --- | --- | --- | --- | --- | --- | --- | --- | --- | --- | --- | --- | --- | --- | --- | --- | --- | --- |
| 52.2% | 39.1 | 45.6 | 7.4 | 4.7 | 14.5 |  |  | Oc1ccc(-c2sc3cc(O)ccc3c2C(O)c2ccc(OCCN3CCCCC3)cc2)cc1 (stereo not drawn) [(b)-Ex2, [6-Hydroxy-2-(4-Hydroxyphenyl)Benzo[B]Thien-3-Yl][4-[2-(1-Piperidinyl)Ethoxy]Phenyl]Methanol] | 22.2% | 43.5 | 61.6 |  |  |  |  |  |  |  |  |
| 4.0% | 23.1 | 5.2 | 7.3 | 4.8 | 5.5 |  |  | Oc1ccc(-c2sc3cc(O)ccc3c2Cc2ccc(OCCN3CCCCC3)cc2)cc1 [(k)-Ex11, [6-Hydroxy-2-(4-Hydroxyphenyl)Benzo[B]Thien-3-Yl][4-[2-(1-Piperidinyl)Ethoxy]Phenyl]Methane Hydrochloride] | 43.7% | 63.0 | 60.7 |  |  |  |  |  |  |  |  |
